Patent US20180057462A1, “Substituted 2-difluoromethyl-nicotin(thio)carboxanilide derivatives and their use as fungicides” (BAYER CROPSCIENCE AKTIENGESELLSCHAFT, priority 2015, published 2018)

Assay: LogP by HPLC on reversed phase columns (EEC directive 79/831 Annex V.A8), method [a]
Assay type: physicochemical
Settings: LC-UV, acidic range, 0.1% formic acid in water and acetonitrile as eluent (linear gradient 10% to 95% acetonitrile)

LogP[a] | chromatographic logP (reversed phase HPLC column) | Structure (SMILES)
2.34 |  | CCOc1cccc(NC(=O)c2cccnc2C(F)F)c1C [Example 118]
3.85 |  | Cc1c(NC(=O)c2cccnc2C(F)F)cccc1OCCC(C)(C)C [Example 78]
3.02 |  | CCC(C)Oc1cccc(NC(=O)c2cccnc2C(F)F)c1C (stereo not drawn) [Example 11]
3.52 |  | Cc1c(NC(=O)c2cccnc2C(F)F)cccc1OC1CCCCC1 [Example 16]
3.06 |  | Cc1c(NC(=O)c2cccnc2C(F)F)cccc1OC(C)C1(Cl)CC1 (stereo not drawn) [Example 25]
3.94 |  | CCCC(CC)Oc1cccc(NC(=O)c2cccnc2C(F)F)c1C (stereo not drawn) [Example 83]
2.21 |  | Cc1c(NC(=O)c2cccnc2C(F)F)cccc1S(=O)(=O)C1CCCC1 [Example 105]
4.31 |  | Cc1c(NC(=O)c2cccnc2C(F)F)cccc1C1CCCCC1(C)C (stereo not drawn) [Example 116]
3.17 |  | Cc1c(NC(=O)c2cccnc2C(F)F)cccc1OCCC1CC1 [Example 26]
2.26 |  | Cc1c(NC(=O)c2cccnc2C(F)F)cccc1OC(C)C1CCOC1 (stereo not drawn) [Example 27]
3.52 |  | Cc1c(NC(=O)c2cccnc2C(F)F)cccc1OCc1cccc(Br)c1 [Example 54]
4.14 |  | Cc1c(NC(=O)c2cccnc2C(F)F)cccc1OCC1CCCCC1 [Example 77]
3.94 |  | CCCCC(C)Oc1cccc(NC(=O)c2cccnc2C(F)F)c1C (stereo not drawn) [Example 86]
3.21 |  | Cc1c(NC(=O)c2cccnc2C(F)F)cccc1OC1CCCC1 [Example 75]
3.06 |  | Cc1c(NC(=O)c2cccnc2C(F)F)cccc1OCc1ccccc1F [Example 41]
2.43 |  | Cc1c(NC(=O)c2cccnc2C(F)F)cccc1C1CC1 [Example 122]
3.17 |  | Cc1c(NC(=O)c2cccnc2C(F)F)cccc1OCC(C)C [Example 13]
4.06 |  | Cc1c(NC(=O)c2cccnc2C(F)F)cccc1OC(C)C1CCCC1 (stereo not drawn) [Example 85]
 | 3.48 | CCCC(C)Oc1cccc(NC(=O)c2cccnc2C(F)F)c1C (stereo not drawn) [Example 79, 2-(difluoromethyl)-N-[2-methyl-3-(pentan-2-yloxy)phenyl]nicotinamide]
3.06 |  | Cc1c(NC(=O)c2cccnc2C(F)F)cccc1OCc1ccc(F)cc1 [Example 36]
3.80 |  | Cc1c(NC(=O)c2cccnc2C(F)F)cccc1C1CC2CCC1C2 (stereo not drawn) [Example 81]
3.41 |  | Cc1c(NC(=O)c2cccnc2C(F)F)cccc1OCc1ccccc1Cl [Example 37]
2.68 |  | Cc1c(NC(=O)c2cccnc2C(F)F)cccc1OCCC(F)(F)F [Example 120]
2.57 |  | CCOCC(C)Oc1cccc(NC(=O)c2cccnc2C(F)F)c1C (stereo not drawn) [Example 20]

Further lines, the molecule ahead of its results:

Structure (SMILES) | LogP[a] | chromatographic logP (reversed phase HPLC column)
Cc1c(NC(=O)c2cccnc2C(F)F)cccc1OCCc1ccc(F)cc1 [Example 63] | 3.29 | 
Cc1c(NC(=O)c2cccnc2C(F)F)cccc1OCc1ccc(Br)cc1 [Example 19] | 3.55 | 
Cc1c(NC(=O)c2cccnc2C(F)F)cccc1OC(C)c1ccccc1Cl (stereo not drawn) [Example 50] | 3.79 | 
CCCOCC(C)Oc1cccc(NC(=O)c2cccnc2C(F)F)c1C (stereo not drawn) [Example 22] | 3.04 | 
O=C(Nc1cccc(-c2ccc(Cl)cc2)c1Cl)c1cccnc1C(F)F [Example 9] | 3.54 | 
Cc1c(NC(=O)c2cccnc2C(F)F)cccc1OCCc1ccccc1C(F)(F)F [Example 59] | 3.74 | 
Cc1c(NC(=O)c2cccnc2C(F)F)cccc1Oc1ncc(C(F)(F)F)cc1Cl [Example 18] | 3.48 | 
O=C(Nc1cccc(-c2ccccc2)c1Cl)c1cccnc1C(F)F [Example 3] | 3.05 | 
O=C(Nc1cccc(-c2ccccc2F)c1Cl)c1cccnc1C(F)F [Example 4] | 2.99 | 
Cc1c(NC(=O)c2cccnc2C(F)F)cccc1OC(C)c1cccc(Cl)c1 (stereo not drawn) [Example 51] | 3.63 | 
Cc1ccc(-c2cccc(NC(=O)c3cccnc3C(F)F)c2C)s1 [Example 111] | 3.19 | 
Cc1c(CCC2CC2(Cl)Cl)cccc1NC(=O)c1c(C(F)F)ccnc1C(F)F (stereo not drawn) [Example 1] | 3.92 | 
CC(Oc1cccc(NC(=O)c2ccc(Cl)nc2C(F)F)c1C(F)(F)F)c1ccccc1 (stereo not drawn) [Example 103] | 4.03 | 
Cc1c(NC(=O)c2cccnc2C(F)F)cccc1OCc1cccc(F)c1 [Example 40] | 3.09 | 
Cc1ccc(OCC(C)Oc2cccc(NC(=O)c3cccnc3C(F)F)c2C)cc1 (stereo not drawn) [Example 31] | 3.68 | 
Cc1c(NC(=O)c2cccnc2C(F)F)cccc1OC(C)Cc1ccccc1Cl (stereo not drawn) [Example 69] | 3.90 | 
O=C(Nc1cccc(-c2ccccc2Cl)c1Cl)c1cccnc1C(F)F [Example 7] | 3.22 | 
Cc1c(NC(=O)c2cccnc2C(F)F)cccc1OC(C)c1c(F)cccc1F (stereo not drawn) [Example 52] | 3.33 | 
Cc1c(NC(=O)c2cccnc2C(F)F)cccc1N(C)C [Example 108] | 0.45 | 
CCO/N=C\C(C)Oc1cccc(NC(=O)c2cccnc2C(F)F)c1C (stereo not drawn) [Example 29] | 2.82 | 
Cc1c(NC(=O)c2cccnc2C(F)F)cccc1OC(C)COc1ccccc1 (stereo not drawn) [Example 30] | 3.33 | 
CCCC(CCC)Oc1cccc(NC(=O)c2cccnc2C(F)F)c1C [Example 12] | 4.26 | 
Cc1c(NC(=O)c2cccnc2C(F)F)cccc1OC(C)c1cc(Cl)ccc1Cl (stereo not drawn) [Example 56] | 4.15 | 
Cc1c(NC(=O)c2cccnc2C(F)F)cccc1OC(C)c1ccccc1C(F)(F)F (stereo not drawn) [Example 55] | 3.87 | 
Cc1c(NC(=O)c2cccnc2C(F)F)cccc1OC(C)c1cccc(C(F)(F)F)c1 (stereo not drawn) [Example 53] | 3.70 | 
CCC(C)Oc1cccc(NC(=O)c2ccc(Cl)nc2C(F)F)c1C(F)(F)F (stereo not drawn) [Example 96] | 3.83 | 
CCCC(CC)Oc1cccc(NC(=O)c2cccnc2C(F)F)c1C(F)(F)F (stereo not drawn) [Example 93] | 3.92 | 

Structure (SMILES) | LogP[a] | chromatographic logP (reversed phase HPLC column)
Cc1c(NC(=O)c2cccnc2C(F)F)cccc1OCc1cccc(Cl)c1Cl [Example 45] | 3.83 | 
Cc1c(NC(=O)c2cccnc2C(F)F)cccc1OCc1ccc(C(F)(F)F)cc1 [Example 73] | 3.57 | 
Cc1c(NC(=O)c2cccnc2C(F)F)cccc1OCc1ccccc1C(F)(F)F [Example 39] | 3.55 | 
Cc1c(NC(=O)c2cccnc2C(F)F)cccc1OCCc1ccccc1F [Example 62] | 3.31 | 
Cc1c(NC(=O)c2cccnc2C(F)F)cccc1OCc1cc(Cl)cc(Cl)c1 [Example 42] | 3.96 | 
C#CCOCC(C)Oc1cccc(NC(=O)c2cccnc2C(F)F)c1C (stereo not drawn) [Example 21] | 2.47 | 
CC(C)Oc1cccc(NC(=O)c2ccc(Cl)nc2C(F)F)c1C(F)(F)F [Example 97] | 3.46 | 
Cc1c(NC(=O)c2cccnc2C(F)F)cccc1OC(C)c1ccc(Cl)c(Cl)c1 (stereo not drawn) [Example 48] | 4.01 | 
Cc1cccc(OCC(C)Oc2cccc(NC(=O)c3cccnc3C(F)F)c2C)c1 (stereo not drawn) [Example 33] | 3.68 | 
O=C(Nc1cccc(OCc2ccccc2)c1C(F)(F)F)c1cccnc1C(F)F [Example 100] | 3.13 | 
Cc1nc(C)c(-c2cccc(NC(=O)c3cccnc3C(F)F)c2C)s1 [Example 112] | 1.98 | 
Cc1c(NC(=O)c2cccnc2C(F)F)cccc1OC(C)COCC(C)C (stereo not drawn) [Example 23] | 3.55 | 
Cc1c(NC(=O)c2cccnc2C(F)F)cccc1OC(C)COc1cccc(Cl)c1 (stereo not drawn) [Example 34] | 3.76 | 
Cc1c(NC(=O)c2cccnc2C(F)F)cccc1OC(C)COc1ccccc1Cl (stereo not drawn) [Example 35] | 3.59 | 
Cc1c(NC(=O)c2cccnc2C(F)F)cccc1OCCc1ccccc1Cl [Example 64] | 3.65 | 
Cc1c(COC(C)C)cccc1NC(=O)c1cccnc1C(F)F [Example 90] | 2.43 | 
Cc1c(NC(=O)c2cccnc2C(F)F)cccc1OCc1ccc(Cl)cc1Cl [Example 46] | 3.99 | 
CC(Oc1cccc(NC(=O)c2cccnc2C(F)F)c1C(F)(F)F)c1ccccc1 (stereo not drawn) [Example 101] | 3.42 | 
Cc1c(NC(=O)c2cccnc2C(F)F)cccc1OC(C)c1ccccc1 (stereo not drawn) [Example 89] | 3.33 | 
Cc1c(NC(=O)c2cccnc2C(F)F)cccc1OC(C)c1ccc(F)cc1 (stereo not drawn) [Example 49] | 3.29 | 
Cc1cnc(C(F)F)c(C(=O)Nc2cccc(OC(C)c3ccccc3)c2C(F)(F)F)c1 (stereo not drawn) [Example 102] | 3.69 | 
Cc1c(NC(=O)c2cccnc2C(F)F)cccc1OC(C)c1ccc(Cl)cc1Cl (stereo not drawn) [Example 115] | 4.41 | 
Cc1c(NC(=O)c2cccnc2C(F)F)cccc1OCc1cccc(C(F)(F)F)c1 [Example 38] | 3.52 | 
Cc1cnc(C(F)F)c(C(=O)Nc2cccc(OC(C)C)c2C(F)(F)F)c1 [Example 98] | 3.04 | 
Cc1c(NC(=O)c2cccnc2C(F)F)cccc1OCCc1cccc(C(F)(F)F)c1 [Example 60] | 3.68 | 
Cc1ccccc1OCC(C)Oc1cccc(NC(=O)c2cccnc2C(F)F)c1C (stereo not drawn) [Example 32] | 3.74 | 
CCC(C)Oc1cccc(NC(=O)c2cc(C)cnc2C(F)F)c1C(F)(F)F (stereo not drawn) [Example 95] | 3.44 | 
